Data set [1] addresses T1, dopamine D-1 receptors in rat striatum (Rattus norvegicus, UniProt P18901).
T1 construct: dopamine D-1 receptors in rat striatum; from tissue; host or cells: rat striatum
The data set is described as follows: Affinity to dopamine D-1 receptors. In kind it is binding.

A short description of data set [2]: in vivo. The arrangement: species or system mice. To be noted: mouse, po. The procedure: (§1) Discoordinating effect (rota-rod test in mice), medium effective dose ED₅₀ 44.0 mg/kg, is still […] than for thioridazine (Taeschler M., Cerletti A., Schweiz.Med. Wochschr. 88, 1216, 1958); this is advantageous. […] Adrenolytic activity in mice is very low: an oral dose as high as 100 mg/kg prevents adrenaline-induced lethality in 20 % of the animals.

The nature of data set [3]: in vivo. To be noted: mouse, po.
Data set [4] deals with adrenaline-induced lethality. As to the kind of experiment: Adrenolytic activity in mice (adrenaline-induced lethality). Type of data set: in vivo. To be noted: oral dose 100 mg/kg. The procedure:
as §1

Another data set has as its system Maccacus rhesus monkeys. To be noted: rhesus monkey, in vivo, po, 10 mg/kg.
In data set [5] the test system is spontaneous locomotor activity in mice. The data set is described as follows: Inhibition of spontaneous locomotor activity in mice, photocell method after Dews. Type of data set: in vivo. To be noted: Mus musculus, oral, read-out: medium inhibitory dose D₅₀.
In data set [6] the target is T2, dopamine D-2 receptors in the rat brain striatum (Rattus norvegicus, UniProt P61169).
T2 construct: dopamine D-2 receptors in the rat brain striatum; from tissue; host or cells: rat brain striatum
The data set is described as follows: Inhibition of binding of 3H-spiperone to dopamine D-2 receptors. The conditions noted are these: inhibition of binding of 0.5 nM ³H-spiperone, read-out: medium inhibitory concentration IC₅₀.

The subject of data set [7] is dopamine turnover and metabolism in rat brain striatum. As to the kind of experiment: Antidopaminergic activity: effect on dopamine turnover and metabolism (homovanillic acid level) in rat brain. Type of data set: in vivo. To be noted: for minimal effective dose: Rattus norvegicus, po, read-out: threshold dose which significantly increased homovanillic acid level; for increase in the concentration of homovanillic acid (% concentration of the metabolite in comparison with the control taken for 100 %): rat brain striatum, oral 80 mg/kg dose.

The test system of data set [8] is re-uptake of noradrenaline. The data set is described as follows: Inhibition of re-uptake of noradrenaline in rat brain. Type of data set: biochemical.
In another data set the test system is re-uptake of serotonin. As to the kind of experiment: Inhibition of re-uptake of serotonin in rat brain. In kind it is biochemical.
The test system of data set [9] is apomorphine-induced emesis in dogs. The data set is described as follows: Inhibition of apomorphine-induced emesis in dogs. To be noted: 10 mg/kg, interval of 4 hours after administration. Type of data set: in vivo.
Data set [10] is described as follows: Anticholinergic activity in vivo.
The nature of data set [11]: Anticholinergic activity in vitro.
A further data set deals with mice. The conditions noted are these: reference compound, for comparison, literature citation given; cited from earlier work.
Data set [12] can be described thus: Depot neuroleptic evaluation (method not described). Type of data set: in vivo. The conditions noted are these: solution of the base (375 mg/ml) in Miglyol 812. The text has this:
2-{4-[2-(2-Chloro-10,11-dihydrodibenzo(b,f)thiepin-10-yloxy)ethyl]piperazin 1-yl} ethanol (compound I-A); succinate 3-{4-[2-(2-Chloro-10,11-dihydrodibenzo(b,f)thiepin-10-yloxy)ethyl]piperazin-1-yl} propanol (I-B); bis(hydrogensuccinate) 1-[2-(2-Chloro-10,11-dihydrodibenzo(b,f)thiepin-10-yloxy)ethyl]-4-methylpiperazine (I-C); bis(hydrogensuccinate) 1-[2-(2-Chloro-10,11-dihydrodibenzo(b,f)thiepin-10-yloxy)ethyl]piperazine (I-D); succinate 2-{4-[2-(2-Chloro-10,11-dihydrodibenzo(b,f)thiepin-10-yloxy)ethyl]piperazin-1-yl} ethyl acetate (I-E); bis(hydrogensuccinate) 2-{4-[2-(2-Chloro 10,11-dihydrodibenzo(b,f)thiepin-10-yloxy)ethyl]piperazin-1-yl} ethyl decanoate (I-F); tested as a solution of the base (375 mg/ml) in Miglyol 812 (Trade Mark).

Read-outs that look alike come from different tables or passages of the source.

T2 sequence (P61169 whole entry): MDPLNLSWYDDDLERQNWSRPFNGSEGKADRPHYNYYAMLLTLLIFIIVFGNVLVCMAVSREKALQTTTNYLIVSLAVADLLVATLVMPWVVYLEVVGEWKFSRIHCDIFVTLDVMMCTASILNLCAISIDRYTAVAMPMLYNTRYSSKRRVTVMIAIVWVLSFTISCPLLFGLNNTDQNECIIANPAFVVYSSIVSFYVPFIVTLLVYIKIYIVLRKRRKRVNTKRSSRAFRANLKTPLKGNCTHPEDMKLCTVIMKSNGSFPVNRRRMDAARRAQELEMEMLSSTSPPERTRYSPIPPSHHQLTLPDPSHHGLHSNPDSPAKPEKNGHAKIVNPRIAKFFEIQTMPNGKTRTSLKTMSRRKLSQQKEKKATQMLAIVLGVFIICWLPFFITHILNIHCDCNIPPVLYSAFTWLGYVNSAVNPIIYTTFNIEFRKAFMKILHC
T1 sequence (P18901 whole entry): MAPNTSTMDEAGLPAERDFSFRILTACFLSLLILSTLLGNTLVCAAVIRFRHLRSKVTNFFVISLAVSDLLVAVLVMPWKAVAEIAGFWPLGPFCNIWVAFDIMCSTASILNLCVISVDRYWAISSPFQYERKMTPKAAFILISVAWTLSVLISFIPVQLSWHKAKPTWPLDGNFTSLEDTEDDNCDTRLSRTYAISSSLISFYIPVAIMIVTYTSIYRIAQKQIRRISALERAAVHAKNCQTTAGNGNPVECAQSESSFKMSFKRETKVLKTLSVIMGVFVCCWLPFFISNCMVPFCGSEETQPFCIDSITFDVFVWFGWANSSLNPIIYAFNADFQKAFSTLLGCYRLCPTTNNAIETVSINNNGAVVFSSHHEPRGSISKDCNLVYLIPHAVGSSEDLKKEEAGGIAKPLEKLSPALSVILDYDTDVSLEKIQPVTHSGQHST

As to `OCCN1CCN(CCOC2Cc3cc(Cl)ccc3Sc3ccccc32)CC1` (centres unmarked) [I-A, 2-{4-[2-(2-Chloro-10,11-dihydrodibenzo(b,f)thiepin-10-yloxy)ethyl]piperazin-1-yl} ethanol], the “affinity to dopamine D-1 receptors” value in data set [1] was “slight affinity”. In addition, in “in vivo [2]”, the TD50 was found to be 44 mg/kg. Also, in “in vivo [3]”, the median lethal dose (LD50) turned out to be 346 mg/kg. The “prevention of adrenaline-induced lethality, share of the animals” value in data set [4] stood at 20%. The blood pressure entry in the data set with Maccacus rhesus monkeys is recorded as “do not affect”. Further, the “general behaviour of the animals” value in the data set on Maccacus rhesus monkeys is on record as “do not affect”. The “heart rhythm (pulse rate)” value with Maccacus rhesus monkeys is on record as “do not affect”. The ED50 in [5] was determined as 15.7 mg/kg. In data set [6], the IC50 came to 212 nM. Further, the minimal effective dose in [7] (corpus striatum) was 20 mg/kg; in data set [7] (tuberculum olfactorium), 10 mg/kg. For the same molecule, the “increase in the concentration of homovanillic acid (% concentration of the metabolite in comparison with the control taken for 100 %)” value in data set [7] is given as 504%. The “inhibition of re-uptake of noradrenaline” value in data set [8] was “weak inhibitor”. Besides, the “inhibition of re-uptake of serotonin” value in the data set on re-uptake of serotonin is “weak inhibitor”. Further, the “inhibition of apomorphine-induced emesis” value in data set [9] was “inhibitory effect”. For the same molecule, the anticholinergic activity result in data set [10] and in [11] was “very low” in each case.

In the data set “in vivo [3]”, `Clc1ccc2c(c1)CC(OCCN1CCNCC1)c1ccccc1S2` (centres unmarked) [I-D, 1-[2-(2-Chloro-10,11-dihydrodibenzo(b,f)thiepin-10-yloxy)ethyl]piperazine] registered an LD50 of 509 mg/kg. Moreover, the IC50 in [6] was 1000 nM.

`OCCCN1CCN(CCOC2Cc3cc(Cl)ccc3Sc3ccccc32)CC1` (centres unmarked) [I-B, 3-{4-[2-(2-Chloro-10,11-dihydrodibenzo(b,f)thiepin-10-yloxy)ethyl]piperazin-1-yl} propanol]: in the data set “in vivo [3]”, the 50% lethal dose (LD50) is 618 mg/kg. Besides, the IC50 in data set [6] came out at 350 nM.

The molecule `CN1CCN(CCOC2Cc3cc(Cl)ccc3Sc3ccccc32)CC1` (centres unmarked) [I-C, 1-[2-(2-Chloro-10,11-dihydrodibenzo(b,f)thiepin-10-yloxy)ethyl]-4-methylpiperazine] gave an LD50 in the data set “in vivo [3]” of 401 mg/kg. Besides, the IC50 in data set [6] was found to be 264 nM.

Consider `CN1CCN(C2=Nc3cc(Cl)ccc3Nc3ccccc32)CC1` [clozapine, reference compound], for which the ED50 in [5] turned out to be 1.05 mg/kg. Moreover, in the data set with mice, the “acute toxicity, LD₅₀” value is 199 mg/kg.

On to `CC(=O)OCCN1CCN(CCOC2Cc3cc(Cl)ccc3Sc3ccccc32)CC1` (racemic) [I-E, 2-{4-[2-(2-Chloro-10,11-dihydrodibenzo(b,f)thiepin-10-yloxy)ethyl]piperazin-1-yl} ethyl acetate], for which the 50% lethal dose (LD50) in the data set “in vivo [3]” was 691 mg/kg. Further, in data set [6], the IC50 worked out at 219 nM. Besides, the “increase in the concentration of homovanillic acid (% concentration of the metabolite in comparison with the control taken for 100 %)” value in data set [7] is given as 244%.

As to `CCCCCCCCCC(=O)OCCN1CCN(CCOC2Cc3cc(Cl)ccc3Sc3ccccc32)CC1` (racemic) [I-F, 2-{4-[2-(2 Chloro-10,11-dihydrodibenzo(b,f)thiepin-10-yloxy)ethyl]piperazin-1-yl} ethyl decanoate], the “duration of neuroleptic action” value in data set [12] is “substantially prolonged action”.

As a reminder, the LD50 is the dose at which mortality reaches 50%. A high value points to lower toxicity.

(Values after patent publication EP0321100A2, “Piperazine derivatives, their acid addition salts and a process for the preparation of same” (SPOFA spojené podniky pro zdravotnickou vyrobu, priority 1987, dated 1989).)
